Test results reported in patent US20040248275A1, “Engineered bacterial aggregates” (priority 2003, published 2004).

B1: Lentil lectin (protein, UniProt P02870 31-210; P02870 218-269, looked up)
Lectin beta chain: TETTSFSITKFSPDQKNLIFQGDGYTTKGKLTLTKAVKSTVGRALYSTPIHIWDRDTGNVANFVTSFTFVIDAPSSYNVADEFTFFIAPVDTKPQTGGGYLGVFNSKEYDKTSQTVAVEFDTFYNAAWDPSNKERHIGIDVNSIKSVNTKSWNLQNGERANVVIAFNAATNVLTVTLTYP
Lectin alpha chain: VTSYTLNEVVPLKDVVPEWVRIGFSATTGAEFAAHEVHSWSFHSELGGTSSS

Legend:
Test in all cases: Lectin aggregation of bacterial cells (microtitre wells, semi-quantitative score)
Format in all cases: cell-based
Set-up in all cases: key: Where the addition of lectins did not cause the aggregation of cells, a score of “0” was assigned; Lectins that caused cellular-aggregation to give small flocs in a turbid suspension were given a score of “+”; A score of “++” was given to lectin-cell aggregate mixes that resulted in large aggregates seen by eye in a turbid suspension; Lectins that caused cellular aggregation to give easily visible aggregates in a clear solution were given a score of “+++”
Settings in all cases: cells O.D. 0.5 at 650 nm
[1] = system: A. hydrophila
Description: (§1) Assay approach: Six lectins were chosen to discover their suitability for the aggregation of different species of bacteria. These were Concanavalin A, Lentil lectin, Pseudomonas aeruginosa lectin, peanut lectin, Limulus polyphemus lectin and wheat germ lectin.
(§2) The ability of the lectins to aggregate bacterial cells was studied by mixing cells at an O.D. of 0.5 at 650 nm with different lectins at different concentrations. The extent of aggregation was determined by a semi-quantitative approach. […] Lectins that caused cellular-aggregation to give small flocs in a turbid suspension were given a score of “+”. […] Lectins that caused cellular aggregation to give easily visible aggregates in a clear solution were given a score of “+++”.

[2] = system: C. aquaticum
Description: as §1, §2

[3] = system: P. putida
Description: as §1, §2

[4] = system: S. haemolyticus
Description: as §1, §2

[5] = system: C. freundii
Description: as §1, §2

[6] = system: E. coli S17-1 (K12)
Description: as §1, §2

[7] = system: S. plymuthica
Description: as §1, §2

[8] = system: K. pneumoniae
Description: as §1, §2

[9] = system: E. faecalis
Description: as §1, §2

[10] = system: K. oxytoca
Description: as §1, §2

[11] = system: E. asburiae
Description: as §1, §2

| Molecule | extent of aggregation (score) ([1]; lectin 1 × 10^−1 mg/mL) | extent of aggregation (score) ([1]; lectin 1 × 10^−2 mg/mL) | extent of aggregation (score) ([1]; lectin 1 × 10^−3 mg/mL) | extent of aggregation (score) ([2]; lectin 1 × 10^−1 mg/mL) | extent of aggregation (score) ([2]; lectin 1 × 10^−2 mg/mL) | extent of aggregation (score) ([2]; lectin 1 × 10^−3 mg/mL) | extent of aggregation (score) ([3]; lectin 1 × 10^−1 mg/mL) | extent of aggregation (score) ([3]; lectin 1 × 10^−2 mg/mL) | extent of aggregation (score) ([3]; lectin 1 × 10^−3 mg/mL) | extent of aggregation (score) ([4]; lectin 1 × 10^−1 mg/mL) | extent of aggregation (score) ([4]; lectin 1 × 10^−2 mg/mL) | extent of aggregation (score) ([4]; lectin 1 × 10^−3 mg/mL) | extent of aggregation (score) ([5]; lectin 1 × 10^−1 mg/mL) | extent of aggregation (score) ([5]; lectin 1 × 10^−2 mg/mL) | extent of aggregation (score) ([5]; lectin 1 × 10^−3 mg/mL) | extent of aggregation (score) ([6]; lectin 1 × 10^−1 mg/mL) | extent of aggregation (score) ([6]; lectin 1 × 10^−2 mg/mL) | extent of aggregation (score) ([6]; lectin 1 × 10^−3 mg/mL) | extent of aggregation (score) ([7]; lectin 1 × 10^−1 mg/mL) | extent of aggregation (score) ([7]; lectin 1 × 10^−2 mg/mL) | further results |
| --- | --- | --- | --- | --- | --- | --- | --- | --- | --- | --- | --- | --- | --- | --- | --- | --- | --- | --- | --- | --- | --- |
| Concanavalin A | +++ | ++ | ++ | ++ | ++ | 0 | +++ | ++ | + | +++ | ++ | + | +++ | + | + | +++ | +++ | + | + | + | extent of aggregation (score) ([7]; lectin 1 × 10^−3 mg/mL): +; extent of aggregation (score) ([8]; lectin 1 × 10^−1 mg/mL): +++; extent of aggregation (score) ([8]; lectin 1 × 10^−2 mg/mL): +; extent of aggregation (score) ([8]; lectin 1 × 10^−3 mg/mL): +; extent of aggregation (score) ([9]; lectin 1 × 10^−1 mg/mL): 0; extent of aggregation (score) ([9]; lectin 1 × 10^−2 mg/mL): +; extent of aggregation (score) ([9]; lectin 1 × 10^−3 mg/mL): ++; extent of aggregation (score) ([10]; lectin 1 × 10^−1 mg/mL): ++; extent of aggregation (score) ([10]; lectin 1 × 10^−2 mg/mL): +; extent of aggregation (score) ([10]; lectin 1 × 10^−3 mg/mL): 0; extent of aggregation (score) ([11]; lectin 1 × 10^−1 mg/mL): +; extent of aggregation (score) ([11]; lectin 1 × 10^−2 mg/mL): +; extent of aggregation (score) ([11]; lectin 1 × 10^−3 mg/mL): 0 |
| B1 | +++ | ++ | ++ | ++ | + | 0 | +++ | ++ | + | +++ | + | + | +++ | + | + | +++ | ++ | + | + | + | extent of aggregation (score) ([7]; lectin 1 × 10^−3 mg/mL): +; extent of aggregation (score) ([8]; lectin 1 × 10^−1 mg/mL): ++; extent of aggregation (score) ([8]; lectin 1 × 10^−2 mg/mL): +; extent of aggregation (score) ([8]; lectin 1 × 10^−3 mg/mL): +; extent of aggregation (score) ([9]; lectin 1 × 10^−1 mg/mL): +; extent of aggregation (score) ([9]; lectin 1 × 10^−2 mg/mL): +; extent of aggregation (score) ([9]; lectin 1 × 10^−3 mg/mL): ++; extent of aggregation (score) ([10]; lectin 1 × 10^−1 mg/mL): ++; extent of aggregation (score) ([10]; lectin 1 × 10^−2 mg/mL): +; extent of aggregation (score) ([10]; lectin 1 × 10^−3 mg/mL): 0; extent of aggregation (score) ([11]; lectin 1 × 10^−1 mg/mL): 0; extent of aggregation (score) ([11]; lectin 1 × 10^−2 mg/mL): 0; extent of aggregation (score) ([11]; lectin 1 × 10^−3 mg/mL): 0 |
